One data set deals with T1, hMAO-B (Homo sapiens, UniProt P27338).
T1 construct: purchased Sigma-Aldrich (Steinheim, Germany)
T1 sequence (P27338 1-520): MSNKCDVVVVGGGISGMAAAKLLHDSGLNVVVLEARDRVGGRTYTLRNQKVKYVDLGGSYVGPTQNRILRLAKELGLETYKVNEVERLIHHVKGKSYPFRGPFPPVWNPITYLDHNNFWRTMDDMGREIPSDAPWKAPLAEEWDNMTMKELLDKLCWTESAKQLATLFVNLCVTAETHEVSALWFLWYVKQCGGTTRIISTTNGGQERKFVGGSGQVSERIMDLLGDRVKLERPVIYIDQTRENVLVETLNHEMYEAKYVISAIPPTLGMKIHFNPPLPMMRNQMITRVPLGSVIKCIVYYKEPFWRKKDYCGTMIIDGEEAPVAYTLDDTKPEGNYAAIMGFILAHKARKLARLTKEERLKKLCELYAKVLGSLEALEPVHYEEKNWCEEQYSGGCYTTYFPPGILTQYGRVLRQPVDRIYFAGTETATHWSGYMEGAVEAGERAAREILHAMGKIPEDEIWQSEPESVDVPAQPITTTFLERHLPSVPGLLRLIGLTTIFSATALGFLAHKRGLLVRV
The data set is described as follows: MAO-B inhibition assay, fluorometric (Amplex Red / horseradish peroxidase-coupled).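 As to all read-outs here: fluorescence read at Ex 535 nm and Em 587 nm over 30 min, linear phase, inhibition relative to uninhibited control wells, IC50 from log concentration–response curves.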 It is filed as biochemical. The settings on record: for inhibition at 1000 µM: 10^−3 M; for inhibition at 100 µM: 10^−4 M; for inhibition at 10 µM: 10^−5 M; for inhibition at 1 µM: 10^−6 M; for inhibition at 0.1 µM: 10^−7 M; for inhibition at 0.01 µM: 10^−8 M; for inhibition at 0.001 µM: 10^−9 M; for IC50: Table 2, mean ± SD, read-out: IC50 against MAO-B.

A further data set has as its target T2, hMAO-A (Homo sapiens, UniProt P21397).
T2 construct: purchased Sigma-Aldrich (Steinheim, Germany)
T2 sequence (P21397 1-527): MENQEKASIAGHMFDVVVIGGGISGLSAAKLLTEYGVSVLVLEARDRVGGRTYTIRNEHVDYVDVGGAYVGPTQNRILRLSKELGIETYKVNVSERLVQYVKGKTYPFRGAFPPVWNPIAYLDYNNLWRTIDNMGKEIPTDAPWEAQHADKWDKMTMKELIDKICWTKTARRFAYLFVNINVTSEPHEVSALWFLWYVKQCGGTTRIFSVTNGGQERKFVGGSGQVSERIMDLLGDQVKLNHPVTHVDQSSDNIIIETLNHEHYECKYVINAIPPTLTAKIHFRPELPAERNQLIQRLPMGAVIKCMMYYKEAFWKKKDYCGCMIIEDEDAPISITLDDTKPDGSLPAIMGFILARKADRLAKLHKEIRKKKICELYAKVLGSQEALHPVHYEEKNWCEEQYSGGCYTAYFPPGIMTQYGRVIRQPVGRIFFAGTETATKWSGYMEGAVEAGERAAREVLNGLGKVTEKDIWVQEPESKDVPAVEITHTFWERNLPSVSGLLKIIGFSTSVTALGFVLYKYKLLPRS
Description: MAO-A inhibition assay, fluorometric (Amplex Red / horseradish peroxidase-coupled). The settings on record: read-out: MAO-A % Inhibition. Type of data set: biochemical. Here is the method: A Biotek Precision XS robotic system (USA) was used for all pipetting operations. Measurements were performed with the use of BioTek-Synergy H1 microplate reader (USA) based upon the fluorescence generated (excitation, 535 nm, emission, 587 nm) over a 30 min period, in which the fluorescence increased linearly.
Enzymatic assay was performed according to recent method pronounced by our research group[17]^,[20–22]. Control, blank and all concentrations of obtained compounds were tested in quadruplicate and inhibition percent was calculated with following equation: % Inhibition=(FCt2 − FCt1) − (FIt2 − FIt1)/FCt2 − FCt1 × 100
FCt2: Fluorescence of a control well measured at t2 time, FCt1: Fluorescence of a control well measured at […]: Fluorescence of an inhibitor well measured at t2 time, FIt1: Fluorescence of an inhibitor well measured at t1 time,
The IC50 values were calculated using a dose-response curve achieved by plotting the percentage inhibition versus the log concentration using GraphPad ‘PRISM’ software (version 5.0).
All the obtained benzylamine-sulphonamide derivatives 4a–4u were investigated for their inhibitory activity against MAO isoforms using a previously described in vitro fluorometric method, which is based on the detection of H2O2 in a horseradish peroxidase-coupled reaction using 10-acetyl-3,7-dihydroxyphenoxazine (Amplex Red reagent)[17]^,[20–22].
The assay was carried out in two steps. […].

Molecules are shown by their SMILES. Like-named read-outs stand apart in the source and are kept apart here.

Description for hMAO-B: FCt2: Fluorescence of a control well measured at t2 time, FCt1: Fluorescence of a control well measured at t2 time, FIt2: Fluorescence of an inhibitor well measured at t2 time, FIt1: Fluorescence of an inhibitor well measured at t1 time,

As usually defined, the inhibition is how much of the control response was suppressed. For orientation: melting point means the temperature of the solid-liquid transition. Compound `Cc1ccc(CN(C(=O)CSc2nccn2C)c2ccc(S(N)(=O)=O)cc2)cc1` [Compound 4k, 2-((1-Methyl-1H-imidazol-2-yl)thio)-N-(4-methylbenzyl)-N-(4-sulfamoylphenyl)acetamide] registered a melting point of 153 to 155 °C. At hMAO-B, this compound returned an inhibition at 1000 µM of 79.5 ± 0.957% and an inhibition at 100 µM of 39 ± 0.702%. The inhibition at 1000 µM on hMAO-A (10^−3 M) amounted to 39.3 ± 0.701%. Further, the inhibition at 100 µM at hMAO-A (10^−4 M) came to 30.3 ± 0.582%.

Turning to `NS(=O)(=O)c1ccc(N(Cc2ccccc2)C(=O)CSc2nnnn2-c2ccccc2)cc1` [Compound 4e, N-Benzyl-2-((1-phenyl-1H-tetrazol-5-yl)thio)-N-(4-sulfamoylphenyl)acetamide], the values for the inhibition at 1000 µM against hMAO-B and on hMAO-A (10^−3 M) were 90.1 ± 1.01% and 41.5 ± 0.899%, respectively. The inhibition at 100 µM was found to be 48.4 ± 0.721% against hMAO-B and 28 ± 0.714% on hMAO-A (10^−4 M).

`COc1ccc2sc(SCC(=O)N(Cc3ccccc3)c3ccc(S(N)(=O)=O)cc3)nc2c1` [Compound 4j, N-Benzyl-2-((5-methoxybenzothiazol-2-yl)thio)-N-(4-sulfamoylphenyl)acetamide]: the inhibition at 1000 µM came out at 90.8 ± 1.25% against hMAO-B and 48.2 ± 0.825% on hMAO-A (10^−3 M). Further, the inhibition at 100 µM was 45.1 ± 0.958% at hMAO-B and 37.4 ± 0.679% on hMAO-A (10^−4 M).

`C#CCN(C)CCCOc1ccc(Cl)cc1Cl` [Clorgiline, reference compound]: at hMAO-A, the inhibition at 100 µM was found to be 98.3 ± 1.82% and the inhibition at 1000 µM turned out to be 99.4 ± 1.96%.

The term IC50 denotes the point on the concentration scale where inhibition reaches its midpoint. Regarding `NS(=O)(=O)c1ccc(N(Cc2ccccc2)C(=O)CSc2ccccn2)cc1` [Compound 4f, N-Benzyl-2-(pyridin-2-ylthio)-N-(4-sulfamoylphenyl)acetamide], on hMAO-B, testing at 1000 µM gave an inhibition of 90.6 ± 1.39%, 100 µM produced 83.3 ± 1.26% inhibition, the inhibition at 10 µM came out at 76.3 ± 1.11% and the inhibition at 1 µM is 73.2 ± 1.06%. Besides, on hMAO-B, the inhibition at 0.1 µM was 48.6 ± 0.957%, the inhibition at 0.01 µM came out at 32.5 ± 0.721%, 0.001 µM produced 20.9 ± 0.623% inhibition and the half-inhibitory concentration (IC50) turned out to be 146 ± 6 nM. The inhibition at 1000 µM at hMAO-A (10^−3 M) was 46 ± 0.863%. For the same compound, the inhibition at 100 µM at hMAO-A (10^−4 M) is 30.1 ± 0.627%.

Consider `Cc1ccc(CN(C(=O)CSc2nnnn2-c2ccccc2)c2ccc(S(N)(=O)=O)cc2)cc1` [Compound 4o, N-(4-Methylbenzyl)-2-((1-phenyl-1H-tetrazol-5-yl)thio)-N-(4-sulfamoylphenyl)acetamide], for which the figures for the inhibition at 1000 µM against hMAO-B and on hMAO-A (10^−3 M) were 68.3 ± 0.824% and 44.2 ± 0.877%, respectively. For the same compound, the inhibition at 100 µM on hMAO-B was determined as 30.3 ± 0.721%; at hMAO-A (10^−4 M) it was 28.7 ± 0.509%.

Consider `COc1ccc2sc(SCC(=O)N(Cc3ccc(C)cc3)c3ccc(S(N)(=O)=O)cc3)nc2c1` [Compound 4u, 2-((5-Methoxybenzothiazol-2-yl)thio)-N-(4-methylbenzyl)-N-(4-sulfamoylphenyl)acetamide], for which the values for the inhibition at 1000 µM against hMAO-B and on hMAO-A (10^−3 M) were 65.1 ± 0.985% and 36.8 ± 0.678%, respectively. For the same compound, the inhibition at 100 µM was found to be 36 ± 0.726% against hMAO-B and 29.9 ± 0.539% at hMAO-A (10^−4 M).

Consider `Cc1ccc(CN(C(=O)CSc2nnnn2C)c2ccc(S(N)(=O)=O)cc2)cc1` [Compound 4n, 2-((1-Methyl-1H-tetrazol-5-yl)thio)-N-(4-methylbenzyl)-N-(4-sulfamoylphenyl)acetamide], for which the results for the inhibition at 1000 µM on hMAO-B and on hMAO-A (10^−3 M) were 72.2 ± 0.959% and 40.2 ± 0.97%, respectively. Also, the inhibition at 100 µM at hMAO-B turned out to be 38.3 ± 0.638%; on hMAO-A (10^−4 M), 21.5 ± 0.632%.

At hMAO-B, `Cn1nnnc1SCC(=O)N(Cc1ccccc1)c1ccc(S(N)(=O)=O)cc1` [Compound 4d, N-Benzyl-2-((1-methyl-1H-tetrazol-5-yl)thio)-N-(4-sulfamoylphenyl)acetamide] registered an inhibition at 1000 µM of 91.6 ± 1.25%, an inhibition at 100 µM of 79.7 ± 1.46%, an inhibition at 10 µM of 76.2 ± 1.06% and an inhibition at 1 µM of 70.9 ± 1.01%. Also, on hMAO-B, the inhibition at 0.1 µM was determined as 47.5 ± 0.957%, the inhibition at 0.01 µM stood at 29.7 ± 0.723%, the inhibition at 0.001 µM turned out to be 15.2 ± 0.602% and the IC50 was 127 ± 5 nM. For the same compound, the inhibition at 1000 µM at hMAO-A (10^−3 M) stood at 39.2 ± 0.65%. For the same compound, the inhibition at 100 µM on hMAO-A (10^−4 M) was determined as 29.5 ± 0.489%.
